From patent US5728710A, “Rapamycin derivatives” (SmithKline Beecham Corporation, priority 1995, dated 1998)

What follows are compounds tested on Spleen cells from BDF1 female mice (assay: Mitogenesis Assay for Immunosuppressive Activity (concanavalin A, 3H-thymidine)). Conditions: Concanavalin A 5 μg/ml, 72 hours at 37° C., 3H-thimidine uptake last 18 hours; read-out: Mitogenesis IC50.
Type: cell-based
Method: Spleen cells from BDF1 female mice were established in RPMI with 10% fetal calf serum at 5×10^6 /mL. One hundred […] of this suspension (5×10^5 cells) were dispensed into 96-well round-bottomed microtiter plates (Linbro, Flow Laboratories). Concanavalin A (5 μg/ml) was added as the mitogenic stimulus, and the final volume in the microtiter wells was adjusted to 200 μL with RPMI. Cell cultures were incubated for 72 hours at 37° C. in a 5% CO2 atmosphere and pulsed with 0.5 μCi ^3 H-thymidine (specific activity […]) for the last 18 hours of the 72 hour culture. The cells were harvested on an automated multiple sample harvester and cell-associated radioactivity counted in a Beckman liquid scintillation counter. The results are expressed as the mean values derived from quadruplicate measurements. Cell viability was determined by trypan blue exclusion after 72 hours of incubation. Compounds to be tested were added to the microtiter plates at the appropriate dilutions prior to the addition of cells.
For “7-Demethoxy-7 (S)-(2' 4'-dimethoxyphenyl)-rapamycin [Example 15]”, the IC50 was < 500 nM. For `COc1ccc(C2CC3CCC(C)C(O)(O3)C(=O)C(=O)N3CCCCC3C(=O)OC(C(C)CC3CCC(O)C(OC)C3)CC(=O)C(C)C=C(C)C(O)C(OC)C(=O)C(C)CC(C)C=CC=CC=C2C)c(OC)c1` [Example 16, 7-Demethoxy-7 (R)-2',4'-dimethoxyphenyl)-rapamycin], the IC50 was < 1000 nM.

Same assay, conditions: Mus musculus, read-out: Mitogenesis IC50
For `CO[C@@H]1C[C@@H]2CC[C@@H](C)[C@@](O)(O2)C(=O)C(=O)N2CCCC[C@H]2C(=O)O[C@H]([C@H](C)C[C@@H]2CC[C@@H](O)[C@H](OC)C2)CC(=O)[C@H](C)/C=C(\C)[C@@H](O)[C@@H](OC)C(=O)[C@H](C)C[C@H](C)/C=C/C=C/C=C/1C` [Example 20, 7-Epirapamycin], the IC50 was < 500 nM.

Same assay, conditions: Mus musculus; Concanavalin A 5 μg/ml, 72 hours at 37° C., 3H-thimidine uptake last 18 hours; read-out: Mitogenesis IC50
`CCO[C@H]1C[C@@H]2CC[C@@H](C)[C@@](O)(O2)C(=O)C(=O)N2CCCC[C@H]2C(=O)O[C@H]([C@H](C)C[C@@H]2CC[C@@H](O)[C@H](OC)C2)CC(=O)[C@H](C)/C=C(\C)[C@@H](O)[C@@H](OC)C(=O)[C@H](C)C[C@H](C)/C=C/C=C/C=C/1C` [Example 1, 7-Demethoxy-7(S)-ethoxyrapamycin] was tested, and the IC50 was < 500 nM. For `CCO[C@@H]1C[C@@H]2CC[C@@H](C)[C@@](O)(O2)C(=O)C(=O)N2CCCC[C@H]2C(=O)O[C@H]([C@H](C)C[C@@H]2CC[C@@H](O)[C@H](OC)C2)CC(=O)[C@H](C)/C=C(\C)[C@@H](O)[C@@H](OC)C(=O)[C@H](C)C[C@H](C)/C=C/C=C/C=C/1C` [Example 2, 7-Demethoxy-7(R)-ethoxyrapamycin], the IC50 was < 500 nM. For `COc1ccc(CO[C@H]2C[C@@H]3CC[C@@H](C)[C@@](O)(O3)C(=O)C(=O)N3CCCC[C@H]3C(=O)O[C@H]([C@H](C)C[C@@H]3CC[C@@H](O)[C@H](OC)C3)CC(=O)[C@H](C)/C=C(\C)[C@@H](O)[C@@H](OC)C(=O)[C@H](C)C[C@H](C)/C=C/C=C/C=C/2C)cc1OC` [Example 3, 7-Demethoxy-7(S)-(3,4-dimethoxybenzyloxy)rapamycin], the IC50 was < 500 nM. With `CO[C@@H]1C[C@H](C[C@@H](C)[C@@H]2CC(=O)[C@H](C)/C=C(\C)[C@@H](O)[C@@H](OC)C(=O)[C@H](C)C[C@H](C)/C=C/C=C/C=C(\C)[C@@H](OCCO)C[C@@H]3CC[C@@H](C)[C@@](O)(O3)C(=O)C(=O)N3CCCC[C@H]3C(=O)O2)CC[C@H]1O` [Example 4, 7-Demethoxy-7(S)-(2-hydroxyethoxy)rapamycin] the IC50 was < 500 nM. With `CO[C@@H]1C[C@H](C[C@@H](C)[C@@H]2CC(=O)[C@H](C)/C=C(\C)[C@@H](O)[C@@H](OC)C(=O)[C@H](C)C[C@H](C)/C=C/C=C/C=C(\C)[C@H](OCCO)C[C@@H]3CC[C@@H](C)[C@@](O)(O3)C(=O)C(=O)N3CCCC[C@H]3C(=O)O2)CC[C@H]1O` [Example 5, 7-Demethoxy-7(R)-(2-hydroxyethoxy)rapamycin] the IC50 was < 500 nM. In the case of `CO[C@@H]1C[C@H](C[C@@H](C)[C@@H]2CC(=O)[C@H](C)/C=C(\C)[C@@H](O)[C@@H](OC)C(=O)[C@H](C)C[C@H](C)/C=C/C=C/C=C(\C)[C@H](OC(C)=O)C[C@@H]3CC[C@@H](C)[C@@](O)(O3)C(=O)C(=O)N3CCCC[C@H]3C(=O)O2)CC[C@H]1O` [Example 6, 7-Demethoxy-7(R)-acetoxyrapamycin], the IC50 is reported as < 500 nM. `CO[C@@H]1C[C@H](C[C@@H](C)[C@@H]2CC(=O)[C@H](C)/C=C(\C)[C@@H](O)[C@@H](OC)C(=O)[C@H](C)C[C@H](C)/C=C/C=C/C=C(\C)[C@@H](c3ccco3)C[C@@H]3CC[C@@H](C)[C@@](O)(O3)C(=O)C(=O)N3CCCC[C@H]3C(=O)O2)CC[C@H]1O` [Example 7, 7-Demethoxy-7(S)-(2'-furanyl)rapamycin] was tested, and the IC50 was < 500 nM. In the case of `CO[C@@H]1C[C@H](C[C@@H](C)[C@@H]2CC(=O)[C@H](C)/C=C(\C)[C@@H](O)[C@@H](OC)C(=O)[C@H](C)C[C@H](C)/C=C/C=C/C=C(\C)CC[C@@H]3CC[C@@H](C)[C@@](O)(O3)C(=O)C(=O)N3CCCC[C@H]3C(=O)O2)CC[C@H]1O` [Example 8, 7-Demethoxyrapamycin], the IC50 is reported as < 500 nM. In the case of `CO[C@@H]1C[C@H](C[C@@H](C)[C@@H]2CC(=O)[C@H](C)/C=C(\C)[C@@H](O)[C@@H](OC)C(=O)[C@H](C)C[C@H](C)/C=C/C=C/C=C(\C)[C@@H](SC)C[C@@H]3CC[C@@H](C)[C@@](O)(O3)C(=O)C(=O)N3CCCC[C@H]3C(=O)O2)CC[C@H]1O` [Example 9, 7-Demethoxy-7(S)-methylthiorapamycin], the IC50 is reported as < 500 nM. For `CO[C@@H]1C[C@H](C[C@@H](C)[C@@H]2CC(=O)[C@H](C)/C=C(\C)[C@@H](O)[C@@H](OC)C(=O)[C@H](C)C[C@H](C)/C=C/C=C/C=C(\C)[C@H](SC)C[C@@H]3CC[C@@H](C)[C@@](O)(O3)C(=O)C(=O)N3CCCC[C@H]3C(=O)O2)CC[C@H]1O` [Example 10, 7-Demethoxy-7(R)-methylthiorapamycin], the IC50 was < 500 nM. `CO[C@@H]1C[C@H](C[C@@H](C)[C@@H]2CC(=O)[C@H](C)/C=C(\C)[C@@H](O)[C@@H](OC)C(=O)[C@H](C)C[C@H](C)/C=C/C=C/C=C(\C)[C@@H](Sc3ccccc3)C[C@@H]3CC[C@@H](C)[C@@](O)(O3)C(=O)C(=O)N3CCCC[C@H]3C(=O)O2)CC[C@H]1O` [Example 11, 7-Demethoxy-7 (S)-phenylthiorapamycin] was tested, and the IC50 was < 500 nM. With `C=CC[C@H]1C[C@@H]2CC[C@@H](C)[C@@](O)(O2)C(=O)C(=O)N2CCCC[C@H]2C(=O)O[C@H]([C@H](C)C[C@@H]2CC[C@@H](O)[C@H](OC)C2)CC(=O)[C@H](C)/C=C(\C)[C@@H](O)[C@@H](OC)C(=O)[C@H](C)C[C@H](C)/C=C/C=C/C=C/1C` [Example 13, 7-Demethoxy-7(S)-allylrapamycin] the IC50 was < 500 nM. In the case of `CO[C@@H]1C[C@H](C[C@@H](C)[C@@H]2CC(=O)[C@H](C)/C=C(\C)[C@@H](O)[C@@H](OC)C(=O)[C@H](C)C[C@H](C)/C=C/C=C/C=C(\C)[C@H](c3ccco3)C[C@@H]3CC[C@@H](C)[C@@](O)(O3)C(=O)C(=O)N3CCCC[C@H]3C(=O)O2)CC[C@H]1O` [Example 14, 7-Demethoxy-7(R)-(2'-furanyl)rapamycin], the IC50 is reported as < 500 nM. `CO[C@@H]1C[C@H](C[C@@H](C)[C@@H]2CC(=O)[C@H](C)/C=C(\C)[C@@H](O)[C@@H](OC)C(=O)[C@H](C)C[C@H](C)/C=C/C=C/C=C(\C)C(=O)C[C@@H]3CC[C@@H](C)[C@@](O)(O3)C(=O)C(=O)N3CCCC[C@H]3C(=O)O2)CC[C@H]1O` [Example 17, 7-Demethoxy-7-Oxorapamycin] was tested, and the IC50 was < 500 nM. For `CO[C@@H]1C[C@H](C[C@@H](C)[C@@H]2CC(=O)[C@H](C)/C=C(\C)[C@@H](O)[C@@H](OC)C(=O)[C@H](C)C[C@H](C)/C=C/C=C/C=C(\C)[C@@H](O)C[C@@H]3CC[C@@H](C)[C@@](O)(O3)C(=O)C(=O)N3CCCC[C@H]3C(=O)O2)CC[C@H]1O` [Example 18, 7-O-Demethylrapamycin], the IC50 was < 500 nM. With `CO[C@@H]1C[C@H](C[C@@H](C)[C@@H]2CC(=O)[C@H](C)/C=C(\C)[C@@H](O)[C@@H](OC)C(=O)[C@H](C)C[C@H](C)/C=C/C=C/C=C(\C)[C@H](O)C[C@@H]3CC[C@@H](C)[C@@](O)(O3)C(=O)C(=O)N3CCCC[C@H]3C(=O)O2)CC[C@H]1O` [Example 19, 7-O-Demethyl-7-Epirapamycin] the IC50 was < 500 nM.

The compounds below were run on Saccharomyces cerevisiae (assay: Assay for Antifungal Activity (agar well zone of inhibition)). Conditions: zones of inhibition after 48 hours, YPD agar.
Type: cell-based
Method: Yeast organism (Saccharomyces cerevisiae) in logarithmic growth were plated on complete agar medium (YPD). Compounds dissolved in an appropriate aqueous or organic solvent were placed in wells punched in the agar. Plates were incubated for 48 hours and zones of inhibition were measured.
In the case of “7-Demethoxy-7 (S)-(2' 4'-dimethoxyphenyl)-rapamycin [Example 15]”, the “Antifungal IC12” value is reported as < 500 ng/mL. With `COc1ccc(C2CC3CCC(C)C(O)(O3)C(=O)C(=O)N3CCCCC3C(=O)OC(C(C)CC3CCC(O)C(OC)C3)CC(=O)C(C)C=C(C)C(O)C(OC)C(=O)C(C)CC(C)C=CC=CC=C2C)c(OC)c1` [Example 16, 7-Demethoxy-7 (R)-2',4'-dimethoxyphenyl)-rapamycin] the “Antifungal IC12” value was < 500 ng/mL.
